Tests used:
[1] = biological target: Tyk2 (Homo sapiens, UniProt P29597); experiment: JAK kinase inhibition assay (EZ Reader, peptide substrate phosphorylation) - Tyk2; format: biochemical; conditions: Tyk2 kinase 1 nM; 8 concentration points, max 10 μM
Description: (§1) Assay for Identifying Inhibitory Effects of Compounds on JAK Kinases
(§2) Janus kinases (JAK), including JAK1, JAK2, JAK3 and Tyk2, transduce a cytokine-mediated signal through a JAK-STAT pathway. The kinases are 120-140 kDa in size and have 7 determined homology regions: JH1 to JH7. JH1 is an important region for enzymatic activity and has typical characteristics of tyrosine kinases. Phosphorylation of tyrosine leads to a change in the conformation of JAK protein, thereby promoting binding of substrate. The JAK-STAT system includes three main parts: receptors penetrating a cell membrane, Janus kinases binding to the receptors, and signal transducers and activators of transcription (STAT) for transmitting signals to a nucleus and DNA. When cytokines bind to receptors, JAK phosphorylates the receptors and attracts STAT proteins. The STAT proteins are also phosphorylated and combined with one another to form dimers. The dimers enter the nucleus and bind to DNA, thereby leading to gene transcription.
(§3) EZ Reader from PerkinElmer can be used to detect the phosphorylation of polypeptide substrates catalyzed by kinases. The device is based on microfluidic techniques, and can directly detect fluorescently labeled substrates and products. The separation step is achieved by controlling the pressure and electric field strength in the microfluidic chip. In kinase assays, a product conversion ratio is usually controlled to be 20-30%. A biological test is used to identify inhibitory effects of compounds on JAKs.
(§4) Compound powder was dissolved in DMSO, sealed and stored in a freezer under −20° C. The in-house compound Ref1 was used as a positive control for JAK1, JAK2 and Tyk2 tests, and Ref2 was used as a positive control for JAK3 tests.
(§5) S2.8. Assay buffer: 20 mM HEPES buffer, pH 7.4, 10 mM magnesium chloride, 0.01% bovine serum albumin BSA, 0.0005% Tween-20 and 1 mM dithiothreitol solution.
(§6) S2.9. Stop buffer: 180 mM HEPES buffer, 20 mM ethylenediaminetetraacetic acid and 0.2% coating reagent 3.
(§7) S2.10. Separation buffer: 100 mM HEPES buffer, 10 mM ethylenediaminetetraacetic acid, 0.0005% Tween 20, 0.1% coating reagent 3 and 1% dimethyl sulfoxide.
(§8) The compound was dissolved in dimethyl sulfoxide and diluted to 10 mM concentration, a certain volume of solution was taken and diluted to 0.6 mM concentration, 10 μL of the 0.6 mM dilution was added to a 384-well microplate, and then was diluted 3-fold with a total of 8 concentration points.
(§9) Positive control (HPE1): Ref1, final concentration: 10 μM […]
(§10) Negative control (ZPE): DMSO, final content: 1.6%
(§11) Compounds: maximum final concentration: 10 μM; 3-fold dilution, 8 concentration points and 2 duplicates.
(§12) S4.1. 250 nL of the compound was added to each well of the assay microplate by using ECHO, and centrifuged at 1000 rpm for 1 minute.
(§13) S4.2. 5 μL of the assay buffer was added and agitated for a few seconds to fully dissolve the compound.
(§14) S4.3. 5 μL of 3× substrate solution and 5 μL of 3× kinase solution were added and centrifuged at 800 rpm for 1 minute.
(§15) S4.4. Final concentrations of JAK1, JAK2, JAK3 and Tyk2 kinases in the reaction system were 20 nM, 1 nM, 1 nM and 1 nM respectively.
(§16) S4.5. Incubation at room temperature, where kinases had time differences, and different batches of kinases had time differences.
(§17) S4.6. When 20%-30% of the reaction completed, 15 μL of stop buffer was added to stop the reaction, and centrifuged at 1000 rpm for 2 minutes.
(§18) S4.7. The microplates were placed on EZ Reader for reading.
(§19) S4.8. Readings on EZ Reader were calculated by using a peak height, where product conversion ratio (%)=product/(product+substrate)*100.
(§20) 5. Data Processing: IC50 calculation
(§21) A graphing software Xlfit was used to form a concentration curve of the test compound, and an IC50 value was calculated.
(§22) “A” means “≥10 μM”; “B” means “≥1 μM and <10 μM”; “C” means “≥0.1 μM and <1 μM”; and “D” means “<0.1 μM”.

[2] = biological target: JAK1 (Homo sapiens, UniProt P23458); experiment: JAK kinase inhibition assay (EZ Reader, peptide substrate phosphorylation) - JAK1; format: biochemical; conditions: JAK1 kinase 20 nM; 8 concentration points, max 10 μM
Description: as §1, §2, §3, §4, §5, §6, §7, §8, §9, §10, §11, §12, §13, §14, §15, §16, §17, §18, §19, §20, §21, §22

Chain of JAK1 (P23458 whole entry): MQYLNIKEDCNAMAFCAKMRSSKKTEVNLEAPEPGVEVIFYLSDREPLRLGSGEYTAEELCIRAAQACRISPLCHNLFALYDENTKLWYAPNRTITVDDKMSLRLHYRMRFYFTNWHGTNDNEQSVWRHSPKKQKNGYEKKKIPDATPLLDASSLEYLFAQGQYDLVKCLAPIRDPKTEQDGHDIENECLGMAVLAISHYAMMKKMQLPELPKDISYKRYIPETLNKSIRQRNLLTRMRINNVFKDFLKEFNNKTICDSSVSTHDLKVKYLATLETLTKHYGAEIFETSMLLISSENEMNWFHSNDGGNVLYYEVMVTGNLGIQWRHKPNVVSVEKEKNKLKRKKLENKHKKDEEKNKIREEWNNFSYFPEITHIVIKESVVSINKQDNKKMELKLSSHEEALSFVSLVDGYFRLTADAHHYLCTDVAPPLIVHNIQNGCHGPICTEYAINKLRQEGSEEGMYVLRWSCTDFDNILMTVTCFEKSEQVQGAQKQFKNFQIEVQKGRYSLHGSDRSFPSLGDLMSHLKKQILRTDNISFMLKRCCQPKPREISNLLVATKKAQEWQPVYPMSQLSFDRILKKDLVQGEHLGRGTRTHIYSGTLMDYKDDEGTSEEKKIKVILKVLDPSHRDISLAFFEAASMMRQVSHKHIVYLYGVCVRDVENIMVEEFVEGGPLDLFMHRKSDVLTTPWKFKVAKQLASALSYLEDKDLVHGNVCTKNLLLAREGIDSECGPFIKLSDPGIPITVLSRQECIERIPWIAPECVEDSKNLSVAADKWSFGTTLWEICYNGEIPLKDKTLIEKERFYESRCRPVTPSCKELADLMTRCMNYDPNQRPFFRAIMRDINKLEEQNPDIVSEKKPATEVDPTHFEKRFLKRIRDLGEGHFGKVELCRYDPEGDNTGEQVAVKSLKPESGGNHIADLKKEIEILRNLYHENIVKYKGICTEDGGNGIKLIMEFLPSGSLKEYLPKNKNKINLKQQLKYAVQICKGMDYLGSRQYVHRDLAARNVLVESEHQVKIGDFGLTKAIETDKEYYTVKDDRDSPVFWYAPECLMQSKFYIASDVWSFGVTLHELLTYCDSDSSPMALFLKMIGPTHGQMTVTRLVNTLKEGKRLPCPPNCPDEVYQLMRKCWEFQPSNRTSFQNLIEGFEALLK
Chain of Tyk2 (P29597 whole entry): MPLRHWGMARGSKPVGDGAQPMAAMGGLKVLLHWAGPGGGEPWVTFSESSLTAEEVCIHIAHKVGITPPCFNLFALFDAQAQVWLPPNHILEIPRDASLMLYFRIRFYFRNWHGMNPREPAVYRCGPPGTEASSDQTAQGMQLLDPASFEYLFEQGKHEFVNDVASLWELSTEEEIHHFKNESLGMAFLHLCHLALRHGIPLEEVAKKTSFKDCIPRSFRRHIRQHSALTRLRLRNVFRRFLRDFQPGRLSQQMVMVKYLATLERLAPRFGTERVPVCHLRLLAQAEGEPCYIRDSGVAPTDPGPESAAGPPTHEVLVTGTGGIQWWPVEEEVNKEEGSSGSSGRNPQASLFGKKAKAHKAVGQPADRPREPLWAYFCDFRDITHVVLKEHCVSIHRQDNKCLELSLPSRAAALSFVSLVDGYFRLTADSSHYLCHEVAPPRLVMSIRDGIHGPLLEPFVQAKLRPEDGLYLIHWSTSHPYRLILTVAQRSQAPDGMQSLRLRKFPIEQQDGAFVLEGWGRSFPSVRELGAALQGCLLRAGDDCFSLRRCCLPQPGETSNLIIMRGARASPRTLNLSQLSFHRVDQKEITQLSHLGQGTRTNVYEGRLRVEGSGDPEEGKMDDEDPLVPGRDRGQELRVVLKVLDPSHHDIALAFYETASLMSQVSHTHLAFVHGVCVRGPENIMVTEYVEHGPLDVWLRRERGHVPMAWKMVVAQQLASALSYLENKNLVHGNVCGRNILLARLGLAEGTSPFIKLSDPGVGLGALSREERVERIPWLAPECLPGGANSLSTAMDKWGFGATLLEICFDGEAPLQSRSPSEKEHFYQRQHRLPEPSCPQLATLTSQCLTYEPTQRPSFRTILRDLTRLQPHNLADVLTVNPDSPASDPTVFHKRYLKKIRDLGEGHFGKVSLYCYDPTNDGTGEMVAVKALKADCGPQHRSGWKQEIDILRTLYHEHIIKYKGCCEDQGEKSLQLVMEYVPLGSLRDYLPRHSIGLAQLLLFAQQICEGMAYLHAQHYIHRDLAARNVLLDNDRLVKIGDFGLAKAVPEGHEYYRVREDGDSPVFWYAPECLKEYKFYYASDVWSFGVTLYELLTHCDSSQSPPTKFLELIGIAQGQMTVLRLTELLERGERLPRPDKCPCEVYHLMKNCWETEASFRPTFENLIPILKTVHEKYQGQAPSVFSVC

| SMILES | IC50 [1] [µM] | IC50 [2] [µM] |
| --- | --- | --- |
| Cn1cc(Nc2nccc(-c3ccc(C(=O)NC4CC4)nc3)n2)cn1 [TDM-180826, N-cyclopropyl-5-(2-((1-methyl-1H-pyrazol-4-yl)amino)pyrimidin-4-yl)pyridinecarboxamide] | 1 to 10 | 1 to 10 |
| Cn1cc(Nc2nccc(-c3ccc(NC(=O)CC4CC4)c4cc[nH]c34)n2)cn1 [TDM-180933] | ≥ 10 | 1 to 10 |
| Cc1cc(-c2ccnc(Nc3cnn(C)c3)n2)ccc1C(=O)NCC#N [TDM-180779, N-(cyanomethyl)-2-methyl-4-(2-((1-methyl-1H-pyrazol-4-yl)amino)pyrimidin-4-yl)benzamide] | 1 to 10 | 1 to 10 |
| Cn1cc(Nc2nccc(-c3ccc(NS(=O)(=O)CCCF)nc3)n2)cn1 [TDM-180903, 3-fluoro-N-(5-(2-((1-methyl-1H-pyrazol-4-yl)amino)pyrimidin-4-yl)pyridin-2-yl)propane-1-sulfonamide] | 1 to 10 | 1 to 10 |
| Cn1cc(Nc2nccc(-c3ccnc(NC(=O)C4CC4(F)F)c3)n2)cn1 (centres unmarked) [TDM-180792, 2,2-difluoro-N-(4-(2-((1-methyl-1H-pyrazol-4-yl)amino)pyrimidin-4-yl)pyridin-2-yl)cyclopropane-1-carboxamide] | ≥ 10 | ≥ 10 |
| Cc1cc(-c2ccnc(Nc3cnn(C)c3)n2)ccc1-n1nccc1C1CC1 [TDM-180782, 4-(4-(5-cyclopropyl-1H-pyrazol-1-yl)-3-methylphenyl)-N-(1-methyl-1H-pyrazol-4-yl)pyrimidin-2-amine] | 1 to 10 | ≥ 10 |
| Cc1cc(-c2ccnc(Nc3cnn(C)c3)n2)cnc1NC(=O)C1CC1 [TDM-180910, N-(3-methyl-5-(2-((1-methyl-1H-pyrazol-4-yl)amino)pyrimidin-4-yl)pyridin-2-yl)cyclopropanemethane] | ≥ 10 | 1 to 10 |
| Cn1cc(Nc2nccc(-c3cnc(NS(=O)(=O)Cc4ccccc4)nc3)n2)cn1 [TDM-180921, N-(2-((1-methyl-1H-pyrazol-4-yl)amino)-[4,5′-bipyrimidin]-2′-yl)-1-phenylmethanesulfonamide] | ≥ 10 | ≥ 10 |
| Cn1cc(Nc2nccc(-c3ccc(NC(=O)C4(C)CC4)nc3)n2)cn1 [TDM-180853, 1-methyl-N-(5-(2-((1-methyl-1H-pyrazol-4-yl)amino)pyrimidin-4-yl)pyridin-2-yl)cyclopropane-1-carboxamide] | 1 to 10 | 1 to 10 |
| Cn1cc(Nc2nccc(-c3ccc(NS(=O)(=O)CCC(F)(F)F)nc3)n2)cn1 [TDM-180895, 3,3,3-trifluoro-N-(5-(2-((1-methyl-1H-pyrazol-4-yl)amino)pyrimidin-4-yl)pyridin-2-yl)propane-1-sulfonamide] | ≥ 10 | 1 to 10 |
| Cn1cc(Nc2nccc(-c3ccc(NC(=O)C4CC4(F)F)c4cc[nH]c34)n2)cn1 (centres unmarked) [TDM-180929, 2,2-difluoro-N-(7-(2-((1-methyl-1H-pyrazol-4-yl)amino)pyrimidin-4-yl)-1H-indol-4-yl)cyclopropane-1-carboxamide] | ≥ 10 | 1 to 10 |
| Cn1cc(Nc2nccc(-c3ccc(C(=O)NC4CC4)cc3)n2)cn1 [TDM-180852, N-cyclopropyl-4-(2-((1-methyl-1H-pyrazol-4-yl)amino)pyrimidin-4-yl)benzamide] | 1 to 10 | 1 to 10 |
| Cn1cc(Nc2nccc(-c3ccc(C(=O)NC4CC4(F)F)nc3)n2)cn1 (centres unmarked) [TDM-180781, N-(2,2-difluorocyclopropyl)-5-(2-((1-methyl-1H-pyrazol-4-yl)amino)pyrimidin-4-yl)pyridinecarboxamide] | 1 to 10 | 1 to 10 |
| Cn1cc(Nc2nccc(-c3cnc(NC(=O)C4CC4)cn3)n2)cn1 [TDM-180914, N-(5-(2-((1-methyl-1H-pyrazol-4-yl)amino)pyrimidin-4-yl)pyrazin-2-yl)cyclopropanemethane] | 1 to 10 | 1 to 10 |

Further lines, results first:

| IC50 [1] [µM] | IC50 [2] [µM] | SMILES |
| --- | --- | --- |
| 0.1 to 1 | 0.1 to 1 | Cn1cc(Nc2nccc(-c3ccc(NC(=O)C4CC4)c4[nH]ccc34)n2)cn1 [TDM-180869, N-(4-(2-((1-methyl-1H-pyrazol-4-yl)amino)pyrimidin-4-yl)-1H-indol-7-yl)cyclopropanecarboxamide] |
| 1 to 10 | 0.1 to 1 | Cn1cc(Nc2nccc(-c3cnc(NC(=O)CC(F)(F)F)cn3)n2)cn1 [TDM-180905, 3,3,3-trifluoro-N-(5-(2-((1-methyl-1H-pyrazol-4-yl)amino)pyrimidin-4-yl)pyrazin-2-yl)propanamide] |
| 0.1 to 1 | < 0.1 | Cn1cc(Nc2nccc(-c3ccc(NC(=O)CC(F)(F)F)c4[nH]ccc34)n2)cn1 [TDM-180870, 3,3,3-trifluoro-N-(4-(2-((1-methyl-1H-pyrazol-4-yl)amino)pyrimidin-4-yl)-1H-indol-7-yl)propanamide] |
| 0.1 to 1 | 0.1 to 1 | Cn1cc(Nc2nccc(-c3ccc(NS(=O)(=O)Cc4ccccc4)nc3)n2)cn1 [TDM-180897, N-(5-(2-((1-methyl-1H-pyrazol-4-yl)amino)pyrimidin-4-yl)pyridin-2-yl)-1-phenylmethanesulfonamide] |
| 1 to 10 | 0.1 to 1 | Cc1cc(-c2ccnc(Nc3cnn(C)c3)n2)ccc1NC(=O)CC(F)(F)F [TDM-180783, 3,3,3-trifluoro-N-(2-methyl-4-(2-((1-methyl-1H-pyrazol-4-yl)amino)pyrimidin-4-yl)phenyl)propanamide] |
| ≥ 10 | 0.1 to 1 | Cn1cc(Nc2nccc(-c3ccc(NC(=O)CC#N)c4cc[nH]c34)n2)cn1 [TDM-180923] |
| 1 to 10 | 0.1 to 1 | Cn1cc(Nc2nccc(-c3cnc(NC(=O)C4CC4(F)F)cn3)n2)cn1 (centres unmarked) [TDM-180892, 2,2-difluoro-N-(5-(2-((1-methyl-1H-pyrazol-4-yl)amino)pyrimidin-4-yl)pyrazin-2-yl)cyclopropane-1-formamide] |
| 0.1 to 1 | 0.1 to 1 | Cn1cc(Nc2nccc(-c3ccc(NC(=O)CC4CC4)c4[nH]ccc34)n2)cn1 [TDM-180920] |
| 0.1 to 1 | < 0.1 | Cn1cc(Nc2nccc(-n3ccc4c(NC(=O)C5CC5)cccc43)n2)cn1 [TDM-180876, N-(1-(2-((1-methyl-1H-pyrazol-4-yl)amino)pyrimidin-4-yl)-1H-indole-4-yl)cyclopropanemethane] |
| 1 to 10 | 0.1 to 1 | Cn1cc(Nc2nccc(-n3ccc4c(NC(=O)CC5CC5)cccc43)n2)cn1 [TDM-180911, 2-cyclopropyl-N-(1-(2-((1-methyl-1H-pyrazol-4-yl)amino)pyrimidin-4-yl)-1H-indol-4-yl)acetamide] |
| < 0.1 | < 0.1 | Cn1cc(Nc2nccc(-c3ccc(NC(=O)[C@@H]4CC4(F)F)nc3)n2)cn1 [TDM-180935, (S)-2,2-difluoro-N-(5-(2-((1-methyl-1H-pyrazol-4-yl)amino)pyrimidin-4-yl)pyridin-2-yl)cyclopropane-1-carboxamide] |
| – | 0.1 to 1 | Cc1cc(-c2ccnc(Nc3cnn(C)c3)n2)ccc1C(=O)NCC#N [TDM-180784, N-(cyanomethyl)-2-methyl-4-(2-((1-methyl-1H-pyrazol-4-yl)amino)pyrimidin-4-yl)benzamide] |
| 1 to 10 | 0.1 to 1 | Cn1cc(Nc2nccc(-c3ccc(NS(=O)(=O)C4CCOCC4)nc3)n2)cn1 [TDM-180875, N-(5-(2-((1-methyl-1H-pyrazol-4-yl)amino)pyrimidin-4-yl)pyridin-2-yl)tetrahydro-2H-pyran-4-sulfonamide] |
